Results on 17 compounds are retold here after patent publication US8106055B2, “Substituted amide compounds” (Gruenenthal GmbH, priority 2007, dated 2012).

For assay [1], the target named is T1, bradykinin 1 receptor (B1R) of the rat (Rattus norvegicus, UniProt P97583).
T1 construct: expressed in transfected cells; host or cells: CHO K1 cells
T1 sequence (P97583 1-337): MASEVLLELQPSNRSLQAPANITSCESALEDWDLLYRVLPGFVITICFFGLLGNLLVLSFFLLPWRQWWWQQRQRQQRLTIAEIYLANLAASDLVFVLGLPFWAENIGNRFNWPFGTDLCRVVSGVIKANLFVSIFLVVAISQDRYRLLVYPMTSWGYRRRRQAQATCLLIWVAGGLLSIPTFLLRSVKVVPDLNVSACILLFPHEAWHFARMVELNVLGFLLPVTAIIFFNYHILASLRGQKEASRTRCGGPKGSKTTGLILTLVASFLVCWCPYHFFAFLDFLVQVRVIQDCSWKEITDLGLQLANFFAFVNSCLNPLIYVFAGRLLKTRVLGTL
As to the kind of experiment: Functional investigation on the rat bradykinin 1 receptor (B1R), Ca2+ FLIPR assay in CHO K1 rB1R cells. The note with it: CHO-K1, B1R antagonism rat, test substance 10 μM, read-out: B1R Ant. r [10 μM] % Inhibition. It counts as cell-based. The essentials:
(§1)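 Peak Ca2+-dependent fluorescence in B1R-transfected CHO K1 cells measures antagonism of an EC80 agonist challenge given 10-20 min after compound. Agonist is Lys-Des-Arg9-bradykinin for human, Des-Arg9-bradykinin for rat receptor.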

In the next assay the target is T2, human μ opiate receptor (Homo sapiens, UniProt P35372).
T2 construct: purchased PerkinElmer Life Sciences, Zaventem, Belgium RB-HOM; host or cells: CHO-K1 cells (membrane preparation)
The experiment in a line: Affinity for the human μ opiate receptor ([3H]-naloxone displacement, CHO-K1 receptor membrane preparation, SPA). It counts as binding. The following applies: 1.5 h, test concentration 1 μM. Put shortly: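 SPA, CHO-K1 hμ membranes; 1 nmol/l [3H]-naloxone; Tris-HCl 50 mmol/l + 0.06% BSA; 90 min RT; NSB with 100 μmol/l naloxone; β-counting. Readout: % inhibition of specific binding at 1 μM test compound.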

Assay [2] concerns the target T3, human bradykinin 1 receptor (B1R) (Homo sapiens, UniProt P46663).
T3 construct: expressed in transfected cells; host or cells: CHO K1 cells
T3 sequence (P46663 1-353): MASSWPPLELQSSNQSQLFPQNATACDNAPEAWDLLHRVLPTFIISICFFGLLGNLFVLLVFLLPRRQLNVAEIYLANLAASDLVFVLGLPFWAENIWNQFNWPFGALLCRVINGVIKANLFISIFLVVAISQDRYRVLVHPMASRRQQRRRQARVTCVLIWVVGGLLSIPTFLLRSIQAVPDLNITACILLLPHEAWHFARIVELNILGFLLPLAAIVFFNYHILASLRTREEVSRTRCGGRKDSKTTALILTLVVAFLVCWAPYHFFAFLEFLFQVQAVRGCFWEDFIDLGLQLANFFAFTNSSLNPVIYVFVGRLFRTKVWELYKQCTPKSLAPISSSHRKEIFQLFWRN
As to the kind of experiment: Functional investigation on the human bradykinin 1 receptor (B1R), Ca2+ FLIPR assay in CHO K1 hB1R cells. The note with it: CHO-K1, B1R antagonism human, test substance 10 μM, read-out: B1R Ant. h [10 μM] % Inhibition. It counts as cell-based. The essentials:
as §1

The mark [3] stands for this setting: Table 3, to be read in the same way as Table 1, read-out: μ.
Where [4] appears, read: % inhibition compared with the maximum achievable inhibition.

Where two headings read alike, the source gives them in different places.

T2 sequence (P35372 whole entry): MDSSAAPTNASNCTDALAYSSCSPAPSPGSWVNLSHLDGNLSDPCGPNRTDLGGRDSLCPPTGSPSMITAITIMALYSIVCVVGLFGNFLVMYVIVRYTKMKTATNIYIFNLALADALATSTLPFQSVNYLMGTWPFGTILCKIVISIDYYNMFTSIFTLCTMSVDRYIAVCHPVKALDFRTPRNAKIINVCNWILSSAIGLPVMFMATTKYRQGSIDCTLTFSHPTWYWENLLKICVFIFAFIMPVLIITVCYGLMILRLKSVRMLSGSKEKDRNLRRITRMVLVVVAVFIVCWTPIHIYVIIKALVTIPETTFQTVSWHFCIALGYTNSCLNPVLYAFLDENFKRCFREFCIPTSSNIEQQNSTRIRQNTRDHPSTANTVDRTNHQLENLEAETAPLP

In the case of `O=C(COCC1CCCN1S(=O)(=O)c1c(Cl)cc(Cl)cc1Cl)NC1CCC(C(CCc2ccccc2)N2CCOCC2)CC1` (stereo not drawn) [Example 696, N-(4-(1-morpholino-3-phenylpropyl)cyclohexyl)-2-((1-(2,4,6-trichlorophenylsulfonyl)pyrrolidin-2-yl)methoxy)acetamide], the inhibition at 10 µM amounted to 91% in assay [1] (Ca2+ FLIPR, CHO K1 rB1R cells) and 43% in assay [2] (Ca2+ FLIPR, CHO K1 hB1R cells). Moreover, the inhibition at 1 µM on human μ opiate receptor (setting [3]) turned out to be 21%.

In the case of `O=C(COCC1CCCN(S(=O)(=O)c2c(Cl)cc(Cl)cc2Cl)C1)NC1CCC(C(c2ccccc2)N2CCOCC2)CC1` (stereo not drawn) [Example 703, N-(4-(morpholino(phenyl)methyl)cyclohexyl)-2-((1-(2,4,6-trichlorophenylsulfonyl)piperidin-3-yl)methoxy)acetamide], the inhibition at 10 µM in assay [1] (Ca2+ FLIPR, CHO K1 rB1R cells) is 37%; in assay [2] (Ca2+ FLIPR, CHO K1 hB1R cells), -4%. Besides, the inhibition at 1 µM on human μ opiate receptor (setting [3]) stood at 19%.

Consider `CN1CCN(C(c2ccc(F)cc2)C2CCN(C(=O)COCC3CCc4ccccc4N3S(=O)(=O)c3ccc(Cl)c(Cl)c3)CC2)CC1` (stereo not drawn) [Example 808, 2-((1-(3,4-dichlorophenylsulfonyl)-1,2,3,4-tetrahydroquinolin-2-yl)methoxy)-1-(4-((4-fluorophenyl)(4-methylpiperazin-1-yl)methyl)piperidin-1-yl)ethanone], for which the inhibition at 10 µM in assay [1] (setting [4]) was determined as 75%; in assay [2] (setting [4]) it was 122%. Also, the inhibition at 1 µM on human μ opiate receptor (setting [3]) came to 12%.

With `COc1cc(C)c(S(=O)(=O)N(C)CCOCC(=O)NC2CCC(C(c3ccccc3)N3CCN(C)CC3)CC2)c(C)c1` (stereo not drawn) [Example 682, 2-(2-(4-methoxy-N,2,6-trimethylphenylsulfonamido)ethoxy)-N-(4-((4-methylpiperazin-1-yl)(phenyl)methyl)cyclohexyl)acetamide], the inhibition at 10 µM was determined as 103% in assay [1] (Ca2+ FLIPR, CHO K1 rB1R cells) and 104% in assay [2] (Ca2+ FLIPR, CHO K1 hB1R cells). Besides, the inhibition at 1 µM at human μ opiate receptor (setting [3]) turned out to be 36%.

In the case of `CN(CCOCC(=O)NCC1CCC(C(c2ccccc2)N2CCOCC2)CC1)S(=O)(=O)c1ccc(Cl)cc1Cl` (stereo not drawn) [Example 705, 2-(2-(2,4-dichloro-N-methylphenylsulfonamido)ethoxy)-N-((4-(morpholino(phenyl)methyl)cyclohexyl)methyl)acetamide], the inhibition at 10 µM is -9% in assay [1] (Ca2+ FLIPR, CHO K1 rB1R cells) and 49% in assay [2] (Ca2+ FLIPR, CHO K1 hB1R cells). The inhibition at 1 µM on human μ opiate receptor (setting [3]) came to 8%.

Take `COc1cc(C)c(S(=O)(=O)N(C)CCOCC(=O)NC2CCC(C(CCc3ccccc3)N3CCOCC3)CC2)c(C)c1` (stereo not drawn) [Example 662, 2-(2-(4-methoxy-N,2,6-trimethylphenylsulfonamido)ethoxy)-N-(4-(1-morpholino-3-phenylpropyl)cyclohexyl)acetamide]: the inhibition at 10 µM in assay [1] (Ca2+ FLIPR, CHO K1 rB1R cells) stood at 101%; in assay [2] (Ca2+ FLIPR, CHO K1 hB1R cells), 104%. Further, the inhibition at 1 µM on human μ opiate receptor (setting [3]) is 3%.

For the compound `COc1cc(C)c(S(=O)(=O)N2CCCC(COCC(=O)NCC3CCC(C(c4ccccc4)N4CCCC4)CC3)C2)c(C)c1` (stereo not drawn) [Example 655, 2-((1-(4-methoxy-2,6-dimethylphenylsulfonyl)piperidin-3-yl)methoxy)-N-((4-(phenyl(pyrrolidin-1-yl)methyl)cyclohexyl)methyl)acetamide], the inhibition at 10 µM in assay [1] (Ca2+ FLIPR, CHO K1 rB1R cells) worked out at 74%; in assay [2] (Ca2+ FLIPR, CHO K1 hB1R cells), 71%. On human μ opiate receptor (setting [3]), the inhibition at 1 µM came out at 38%.

In the case of `COc1cc(C)c(S(=O)(=O)N(C)CCOCC(=O)N2CCC(C(Cc3ccccc3)N3CCN(C)CC3)CC2)c(C)c1` (stereo not drawn) [Example 803, 4-methoxy-N,2,6-trimethyl-N-(2-(2-(4-(1-(4-methylpiperazin-1-yl)-2-phenylethyl)piperidin-1-yl)-2-oxoethoxy)ethyl)benzenesulfonamide], the figures for the inhibition at 10 µM in assay [1] (setting [4]) and in assay [2] (setting [4]) were 99% and 108%, respectively. Also, on human μ opiate receptor (setting [3]), the inhibition at 1 µM came out at 13%.

In the case of `O=C(COCC1CCCN1S(=O)(=O)c1c(Cl)cc(Cl)cc1Cl)NC1CCC(C(c2ccccc2)N2CCCC2)CC1` (stereo not drawn) [Example 650, N-(4-(phenyl(pyrrolidin-1-yl)methyl)cyclohexyl)-2-((1-(2,4,6-trichlorophenylsulfonyl)pyrrolidin-2-yl)methoxy)acetamide], the inhibition at 10 µM in assay [1] (Ca2+ FLIPR, CHO K1 rB1R cells) amounted to 99%; in assay [2] (Ca2+ FLIPR, CHO K1 hB1R cells), 96%. Moreover, the inhibition at 1 µM on human μ opiate receptor (setting [3]) is 92%.

Consider `COc1cc(C)c(S(=O)(=O)N2CCCC2COCC(=O)NCC2CCC(C(CCc3ccccc3)N3CCCC3)CC2)c(C)c1` (stereo not drawn) [Example 750, 2-((1-(4-methoxy-2,6-dimethylphenylsulfonyl)pyrrolidin-2-yl)methoxy)-N-((4-(3-phenyl-1-(pyrrolidin-1-yl)propyl)cyclohexyl)methyl)acetamide], for which the inhibition at 10 µM in assay [1] (Ca2+ FLIPR, CHO K1 rB1R cells) was determined as 94%; in assay [2] (Ca2+ FLIPR, CHO K1 hB1R cells) it was 101%. On human μ opiate receptor (setting [3]), the inhibition at 1 µM is 52%.

Turning to `COc1cc(C)c(S(=O)(=O)N2CCCC2COCC(=O)NCC2CCC(C(c3ccccc3)N3CCOCC3)CC2)c(C)c1` (stereo not drawn) [Example 709, 2-((1-(4-methoxy-2,6-dimethylphenylsulfonyl)pyrrolidin-2-yl)methoxy)-N-((4-(morpholino(phenyl)methyl)cyclohexyl)methyl)acetamide], the inhibition at 10 µM in assay [1] (Ca2+ FLIPR, CHO K1 rB1R cells) was 104%; in assay [2] (Ca2+ FLIPR, CHO K1 hB1R cells), 82%. The inhibition at 1 µM on human μ opiate receptor (setting [3]) is 8%.

Consider `COc1cc(C)c(S(=O)(=O)N2CCCC(OCC(=O)NC3CCC(C(CCc4ccccc4)N4CCOCC4)CC3)C2)c(C)c1` (stereo not drawn) [Example 674, 2-(1-(4-methoxy-2,6-dimethylphenylsulfonyl)piperidin-3-yloxy)-N-(4-(1-morpholino-3-phenylpropyl)cyclohexyl)acetamide], for which the inhibition at 10 µM in assay [1] (Ca2+ FLIPR, CHO K1 rB1R cells) came out at 45%; in assay [2] (Ca2+ FLIPR, CHO K1 hB1R cells) it was 61%. The inhibition at 1 µM at human μ opiate receptor (setting [3]) worked out at 7%.

As for `O=C(COCC1CCCCN1S(=O)(=O)c1c(Cl)cc(Cl)cc1Cl)NC1CCC(C(c2ccccc2)N2CCCC2)CC1` (stereo not drawn) [Example 653, N-(4-(phenyl(pyrrolidin-1-yl)methyl)cyclohexyl)-2-((1-(2,4,6-trichlorophenylsulfonyl)piperidin-2-yl)methoxy)acetamide], the inhibition at 10 µM in assay [1] (Ca2+ FLIPR, CHO K1 rB1R cells) was 95%; in assay [2] (Ca2+ FLIPR, CHO K1 hB1R cells), 101%. Further, the inhibition at 1 µM at human μ opiate receptor (setting [3]) came out at 94%.

In the case of `COc1cc(C)c(S(=O)(=O)N(C)CCOCC(=O)NC2CCC(C(c3ccccc3)N3CCCCC3)CC2)c(C)c1C` (stereo not drawn) [Example 617, 2-{2-[(4-methoxy-2,3,6-trimethylbenzenesulfonyl)-methylamino]-ethoxy}-N-[4-(phenylpiperidin-1-yl-methyl)-cyclohexyl]-acetamide], the inhibition at 10 µM in assay [1] (Ca2+ FLIPR, CHO K1 rB1R cells) stood at 48%; in assay [2] (Ca2+ FLIPR, CHO K1 hB1R cells), 86%. On human μ opiate receptor (Table 2, read-out: μ receptor), the inhibition at 1 µM stood at 29%.

Turning to `O=C(COCC1CCCCN1S(=O)(=O)c1c(Cl)cc(Cl)cc1Cl)NC1CCC(C(CCc2ccccc2)N2CCOCC2)CC1` (stereo not drawn) [Example 737, N-(4-(1-morpholino-3-phenylpropyl)cyclohexyl)-2-((1-(2,4,6-trichlorophenylsulfonyl)piperidin-2-yl)methoxy)acetamide], the inhibition at 10 µM in assay [1] (Ca2+ FLIPR, CHO K1 rB1R cells) was 56%; in assay [2] (Ca2+ FLIPR, CHO K1 hB1R cells), 23%. Also, the inhibition at 1 µM on human μ opiate receptor (setting [3]) was determined as 22%.

For `CN(CCOCC(=O)NC1CCC(C(CCc2ccccc2)N2CCOCC2)CC1)S(=O)(=O)c1ccc(Cl)cc1Cl` (stereo not drawn) [Example 660, 2-(2-(2,4-dichloro-N-methylphenylsulfonamido)ethoxy)-N-(4-(1-morpholino-3-phenylpropyl)cyclohexyl)acetamide], the inhibition at 10 µM was 12% in assay [1] (Ca2+ FLIPR, CHO K1 rB1R cells) and 30% in assay [2] (Ca2+ FLIPR, CHO K1 hB1R cells). Besides, the inhibition at 1 µM on human μ opiate receptor (setting [3]) is 4%.

With `O=C(COCC1CCCN1S(=O)(=O)c1c(Cl)cc(Cl)cc1Cl)NCC1CCC(C(CCc2ccccc2)N2CCOCC2)CC1` (stereo not drawn) [Example 751, N-((4-(1-morpholino-3-phenylpropyl)cyclohexyl)methyl)-2-((1-(2,4,6-trichlorophenylsulfonyl)pyrrolidin-2-yl)methoxy)acetamide], the inhibition at 10 µM in assay [1] (Ca2+ FLIPR, CHO K1 rB1R cells) is 73%; in assay [2] (Ca2+ FLIPR, CHO K1 hB1R cells), 45%. Moreover, on human μ opiate receptor (setting [3]), the inhibition at 1 µM stood at 32%.
